For test [1], the system named is U937 human histiocytic leukemia cell line. Briefly: Inhibition of TSQ induced necroptosis in U937 cells (CellTitre-Glo). Conditions: Homo sapiens, U-937, TSQ cocktail (TNF, Smac mimetic, Q-VD-OPh), 48 hours, read-out: Inhibition of TSQ-induced necroptosis (IC50 cell-based assay). The procedure:
Cellular Assay: Screening Compounds for Inhibition of TSQ Induced Necroptosis, 384 Well Plate Format.
(§1) • Cell Line ID: U937 human histiocytic leukemia cell line. • Cell Concentration (cells/well): Final cell density is 20000 cells per well. • Cell growth medium: HT-RPMI medium+7.4% Fetal Bovine Serum (FBS). Cells are cultured in Corning 150 cm^2 tissue culture flasks with vented caps at 37° C./5% CO2. • Incubation: Plates were incubated at 37° C./5% CO2 in a humidified incubator for 48 hours following addition of compounds and death stimuli (TSQ cocktail). • Compound concentration: 36 μM starting concentration, 1:3 dilution, 10 point • DMSO final concentration (% v/v): 0.3%. Compounds in TSQ Cocktail (T: TNF; S: Smac Mimetic; Q: Q-VD-OPh) and their Final Concentrations: • hTNF-Fc (100 ng/ml)—produced by standard procedures as shown in Bossen et al., J. Biol. Chem., 2006, 281(20), 13964-13971. • Compound A (500 nM) —Smac mimetic, Tetralogic and SYNthesis med chem • Q-VD-OPh (10 μM) —MP Biomedicals
(§2) The cellular assay was carried out according to the following steps: • 1. Each well was prepared by sequential addition of: • a. DMSO (control; columns 1-2 and 23-24) or compound in DMSO—addition was performed using acoustic transfer of nL volumes of stock compound to give final test concentrations of 36, 12, 4, 1.3, 0.44, 0.148, 0.049, 0.016, 0.005 and 0.002 μM. All wells were backfilled with DMSO to a final total volume in the well of 100 nL. • b. Following compound/DMSO addition in step (a), 40 μL of cell suspension (5×10^5 cells/mL) was added to provide a final cell concentration of 20,000 cells per well, and • c. Following cell addition in step (b), 10 μL of 5×TSQ cocktail (except to positive controls; columns 1 and 23) was added to each well. • 2. After 48 hours, plate was removed from the 37° C. incubator and equilibrated to room temperature for 45 minutes. • 3. 15 μL of room temperature CellTitre-Glo2™ (Promega™) was added to each well. • 4. Shook plates for 2 minutes (˜600 rpm) and incubated at room temperature for 15 minutes to allow signal to stabilise. • 5. Read luminescence readout on a plate reader.
Percent viability was calculated for each compound according to equation (2): […]
(§3) 10 point titration curves were fitted with the 4 parameter logistic nonlinear regression model and the IC50 reported reflect the inflection point of the curve for curve fitting.
(§4) • Assay involving the TSQ cocktail (T: TNF; S: Smac mimetic; Q: Q-VD-OPh): TSQ treatment ensures that cells specifically undergo necroptotic cell death. TNF activates the TNF receptor, Smac mimetic directs the signal away from proinflammatory signaling and toward the RIPK1/RIPK3-mediated cell death pathways, and Q-VD-OPh ensures that the apoptotic response is blocked leaving only the programmed necrosis response. The compounds' activity (solution in DMSO) tested in this TSQ-induced assay was evaluated by determining the number of viable cells in culture by measuring the amount of ATP present as measured by CelltiterGlo. • Counter screen: In parallel, all compounds were tested for their ability to affect cell viability. The same U937 cells were treated with compound in DMSO without the TSQ cocktail. This counter screen enabled evaluation of off-target effects. In this case, cell viability was measured by CelltiterGlo.

For test [2], the system named is U937 cells. Briefly: Counter screen: U937 cell viability without TSQ cocktail (off-target effect). More on the design: species or system human. Conditions: Homo sapiens, U-937, compound without TSQ cocktail, read-out: Off-target effect (IC50 cell-based assay). The procedure:
as §1, §2, §3, §4
Background: A counterscreen serves to expose hits that act by an unwanted route or on another target.

The target of test [3] is human RIPK3 (Homo sapiens (Human), UniProt Q9Y572). Briefly: KINOMEscan binding assay, human RIPK3. Conditions: equilibrium dissociation constant. The method, then: (§5) Binding affinity of the test compounds for human MLKL (full length), mouse MLKL (full length), human RIPK1 and human RIPK3 was determined using the KINOMEscan™ technology developed by DiscoverX (USA; http://www.discoverx.com). The assay was conducted according to manufacturer instructions.
(§6) Kinase assays. For most assays, kinase-tagged T7 phage strains were grown in parallel in 24-well blocks in an E. coli host derived from the BL21 strain. E. coli were grown to log-phase and infected with T7 phage from a frozen stock (multiplicity of infection=0.4) and incubated with shaking at 32° C. until lysis (90-150 minutes). The lysates were centrifuged (6,000×g) and filtered (0.2 μm) to remove cell debris. The remaining kinases were produced in HEK-293 cells and subsequently tagged with DNA for qPCR detection. […] The liganded beads were blocked with excess biotin and washed with blocking buffer (SeaBlock (Pierce), 1% BSA, 0.05% Tween 20, 1 mM DTT) to remove unbound ligand and to reduce non-specific phage binding. […] All reactions were performed in polypropylene 384-well plates in a final volume of 20 μL. […] The kinase concentration in the eluates was measured by qPCR.
(§7) An 11-point 3-fold serial dilution of each test compound was prepared in 100% DMSO at 100× final test concentration and subsequently diluted to 1× in the assay (final DMSO concentration=1%). Most Kos were determined using a compound top concentration=30,000 nM.
(§8) KD for each test compound was calculated with a standard dose-response curve using the Hill equation (equation (1)): […]
(§9) The Hill Slope was set to −1.
(§10) Curves were fitted using a non-linear least square fit with the Levenberg-Marquardt algorithm.

The target of test [4] is human MLKL (full length) (Homo sapiens (Human), UniProt Q8NB16). The experiment in a line: KINOMEscan binding assay, human MLKL (full length). The conditions noted are these: equilibrium dissociation constant. The procedure:
as §5, §6, §7, §8, §9, §10

For test [5], the target named is human RIPK1 (Homo sapiens (Human), UniProt Q13546). Briefly: KINOMEscan binding assay, human RIPK1. Conditions: equilibrium dissociation constant. The method, then:
as §5, §6, §7, §8, §9, §10

Molecules are shown by their SMILES.

human RIPK1, sequence (Q13546 whole entry): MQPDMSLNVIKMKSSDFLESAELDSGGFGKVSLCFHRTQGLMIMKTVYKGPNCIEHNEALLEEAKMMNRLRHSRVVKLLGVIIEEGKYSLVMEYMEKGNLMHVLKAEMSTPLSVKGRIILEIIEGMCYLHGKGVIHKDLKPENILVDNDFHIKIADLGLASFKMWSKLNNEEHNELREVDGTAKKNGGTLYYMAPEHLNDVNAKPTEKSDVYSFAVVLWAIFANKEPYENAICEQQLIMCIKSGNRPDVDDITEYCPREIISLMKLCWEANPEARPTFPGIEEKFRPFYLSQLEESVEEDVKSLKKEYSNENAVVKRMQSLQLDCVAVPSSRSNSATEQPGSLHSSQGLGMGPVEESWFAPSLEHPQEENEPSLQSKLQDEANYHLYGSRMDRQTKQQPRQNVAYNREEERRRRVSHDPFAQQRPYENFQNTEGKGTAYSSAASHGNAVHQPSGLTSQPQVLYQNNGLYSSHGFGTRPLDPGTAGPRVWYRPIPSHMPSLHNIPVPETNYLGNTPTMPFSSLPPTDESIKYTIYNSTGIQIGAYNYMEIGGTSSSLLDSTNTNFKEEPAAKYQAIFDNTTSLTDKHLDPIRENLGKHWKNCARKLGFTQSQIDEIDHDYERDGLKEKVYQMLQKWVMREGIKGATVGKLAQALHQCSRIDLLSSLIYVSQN
human RIPK3, sequence (Q9Y572 whole entry): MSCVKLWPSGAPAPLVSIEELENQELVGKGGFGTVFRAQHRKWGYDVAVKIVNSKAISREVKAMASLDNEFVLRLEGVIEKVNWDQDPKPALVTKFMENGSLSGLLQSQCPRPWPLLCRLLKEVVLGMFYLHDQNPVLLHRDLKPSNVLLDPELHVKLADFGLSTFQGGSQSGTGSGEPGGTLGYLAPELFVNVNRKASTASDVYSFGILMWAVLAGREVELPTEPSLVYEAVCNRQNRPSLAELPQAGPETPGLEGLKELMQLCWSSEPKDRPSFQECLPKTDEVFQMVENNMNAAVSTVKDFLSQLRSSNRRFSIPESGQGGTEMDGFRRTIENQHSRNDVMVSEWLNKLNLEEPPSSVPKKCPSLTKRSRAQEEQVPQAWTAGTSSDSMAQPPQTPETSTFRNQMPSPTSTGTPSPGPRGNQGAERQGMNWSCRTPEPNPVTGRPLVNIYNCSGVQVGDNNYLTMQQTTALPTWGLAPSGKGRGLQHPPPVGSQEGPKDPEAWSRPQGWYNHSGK
human MLKL (full length), sequence (Q8NB16 whole entry): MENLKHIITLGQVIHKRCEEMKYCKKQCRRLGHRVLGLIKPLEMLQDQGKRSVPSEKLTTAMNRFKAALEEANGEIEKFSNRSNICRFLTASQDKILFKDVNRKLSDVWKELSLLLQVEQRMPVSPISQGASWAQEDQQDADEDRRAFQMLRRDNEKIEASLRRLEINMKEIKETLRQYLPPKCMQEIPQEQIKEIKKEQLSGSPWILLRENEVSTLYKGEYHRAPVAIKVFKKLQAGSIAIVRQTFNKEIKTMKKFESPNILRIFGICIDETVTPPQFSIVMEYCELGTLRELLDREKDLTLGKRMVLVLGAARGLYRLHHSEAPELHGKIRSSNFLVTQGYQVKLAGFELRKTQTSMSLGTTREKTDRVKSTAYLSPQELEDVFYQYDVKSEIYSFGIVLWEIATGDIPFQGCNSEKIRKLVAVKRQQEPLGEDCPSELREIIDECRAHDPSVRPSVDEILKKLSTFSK

On to `Cn1nc(-c2ccc(NS(=O)(=O)C(F)F)c(OCc3ccc(F)cc3)c2)c2c(N)ncc(-c3cnn(CCO)c3)c21` [Compound 12, N-(4-(4-amino-7-(1-(2-hydroxyethyl)-1H-pyrazol-4-yl)-1-methyl-1H-pyrazolo[4,3-c]pyridin-3-yl)-2-((4-fluorobenzyl)oxy)phenyl)-1,1-difluoromethanesulfonamide], for which the 50% inhibitory concentration (IC50) (in general, the concentration that inhibits the measured activity by half) was 1 to 10 µM in test [1] and > 10 µM in test [2].
The like results for `Cn1nc(-c2ccc(NS(=O)(=O)C(F)F)c(OCc3ccc(F)cc3)c2)c2c(N)ncc(-c3ccncc3)c21` [Compound 14, N-(4-(4-amino-1-methyl-7-(pyridin-4-yl)-1H-pyrazolo[4,3-c]pyridin-3-yl)-2-((4-fluorobenzyl)oxy)phenyl)-1,1-difluoromethanesulfonamide] were, in that order, 1 to 10 µM and > 10 µM.
Take `C[C@H](Oc1cc(-c2nn(C)c3c(-c4cnn5c4CN(C)CC5)cnc(N)c23)ccc1NS(=O)(=O)C(F)F)c1ccc(F)cc1` [Compound 91, (S)—N-(4-(4-amino-1-methyl-7-(5-methyl-4,5,6,7-tetrahydropyrazolo[1,5-a]pyrazin-3-yl)-1H-pyrazolo[4,3-c]pyridin-3-yl)-2-(1-(4-fluorophenyl)ethoxy)phenyl)-1,1-difluoromethanesulfonamide]: the Kd – broadly, the free concentration of one partner at which half of the binding sites on the other are occupied at equilibrium, for simple one-to-one binding – in test [3] was > 10 µM; in test [4] it was 0.1 to 10 µM; in test [5], > 10 µM.
Regarding `C[C@H](Oc1cc(-c2nn(C)c3c(-c4cnc(N5CCOCC5)nc4)cnc(N)c23)ccc1NS(=O)(=O)C(F)F)c1ccc(F)cc1` [Compound 110, (S)-N-(4-(4-amino-1-methyl-7-(2-morpholinopyrimidin-5-yl)-1H-pyrazolo[4,3-c]pyridin-3-yl)-2-(1-(4-fluorophenyl)ethoxy)phenyl)-1,1-difluoromethanesulfonamide], the figures for the Kd in test [3], in test [4] and in test [5] were > 10 µM, < 0.001 µM and > 10 µM, respectively.
For `COC[C@@H](Oc1cc(-c2nn(C)c3c(-c4cnn(C5CCOCC5)c4)cnc(N)c23)ccc1NS(=O)(=O)C(F)F)c1ccc(F)cc1` [Compound 112, (S)—N-(4-(4-amino-1-methyl-7-(1-(tetrahydro-2H-pyran-4-yl)-1H-pyrazol-4-yl)-1H-pyrazolo[4,3-c]pyridin-3-yl)-2-(1-(4-fluorophenyl)-2-methoxyethoxy)phenyl)-1,1-difluoromethanesulfonamide], the Kd in test [3] was > 10 µM; in test [4] it was 0.001 to 0.1 µM; in test [5], > 10 µM.
As for `C[C@H](Oc1cc(-c2nn(C)c3c(-c4cnc(N5CCCC5)nc4)cnc(N)c23)ccc1NS(=O)(=O)C(F)F)c1ccc(F)cc1` [Compound 114, (S)-N-(4-(4-amino-1-methyl-7-(2-(pyrrolidin-1-yl)pyrimidin-5-yl)-1H-pyrazolo[4,3-c]pyridin-3-yl)-2-(1-(4-fluorophenyl)ethoxy)phenyl)-1,1-difluoromethanesulfonamide], the Kd is > 10 µM in test [3], 0.001 to 0.1 µM in test [4] and > 10 µM in test [5].
With `C[C@H](Oc1cc(-c2nn(C)c3c(-c4cnn(C5CCOCC5)c4)cnc(N)c23)ccc1NS(=O)(=O)C(F)F)c1ccccc1F` [Compound 118, (S)-N-(4-(4-amino-1-methyl-7-(1-(tetrahydro-2H-pyran-4-yl)-1H-pyrazol-4-yl)-1H-pyrazolo[4,3-c]pyridin-3-yl)-2-(1-(2-fluorophenyl)ethoxy)phenyl)-1,1-difluoromethanesulfonamide], the results for the Kd in test [3], in test [4] and in test [5] were > 10 µM, 0.001 to 0.1 µM and > 10 µM, respectively.
Turning to `C[C@H](Oc1cc(-c2nn(C)c3c(-c4cnn(C5CCOCC5)c4)cnc(N)c23)ccc1NS(=O)(=O)N(C)C)c1ccc(F)cc1` [Compound 124], the Kd was > 10 µM in test [3], 0.1 to 10 µM in test [4] and > 10 µM in test [5].
Turning to `C[C@H](Oc1cc(-c2nn(C)c3c(-c4cnn(C5CCOCC5)c4)cnc(N)c23)ccc1NS(=O)(=O)Cc1ccccc1)c1ccc(F)cc1` [Compound 125, (S)-N-(4-(4-amino-1-methyl-7-(1-(tetrahydro-2H-pyran-4-yl)-1H-pyrazol-4-yl)-1H-pyrazolo[4,3-c]pyridin-3-yl)-2-(1-(4-fluorophenyl)ethoxy)phenyl)-1-phenylmethanesulfonamide], the equilibrium dissociation constant (Kd) in test [3] was > 10 µM; in test [4], 0.001 to 0.1 µM; in test [5], > 10 µM.
Take `Cn1nc(-c2ccc(NS(=O)(=O)C(F)F)c(OCc3cccc(Cl)c3)c2)c2c(N)ncc(-c3cnn(C4CCOCC4)c3)c21` [Compound 130, N-(4-(4-amino-1-methyl-7-(1-(tetrahydro-2H-pyran-4-yl)-1H-pyrazol-4-yl)-1H-pyrazolo[4,3-c]pyridin-3-yl)-2-((3-chlorobenzyl)oxy)phenyl)-1,1-difluoromethanesulfonamide]: the Kd in test [3] was > 10 µM; in test [4] it was < 0.001 µM; in test [5], > 10 µM.
For `Cn1nc(-c2ccc(NS(=O)(=O)C(F)F)c(OCc3nccs3)c2)c2c(N)ncc(-c3cnn(C4CCOCC4)c3)c21` [Compound 143, N-(4-(4-amino-1-methyl-7-(1-(tetrahydro-2H-pyran-4-yl)-1H-pyrazol-4-yl)-1H-pyrazolo[4,3-c]pyridin-3-yl)-2-(thiazol-2-ylmethoxy)phenyl)-1,1-difluoromethanesulfonamide], the results for the Kd in test [3], in test [4] and in test [5] were > 10 µM, < 0.001 µM and > 10 µM, respectively.
As to `CC(C)Oc1cc(-c2nn(C)c3c(-c4cnn(C5CCOCC5)c4)cnc(N)c23)ccc1NS(=O)(=O)C(F)F` [Compound 144, N-(4-(4-amino-1-methyl-7-(1-(tetrahydro-2H-pyran-4-yl)-1H-pyrazol-4-yl)-1H-pyrazolo[4,3-c]pyridin-3-yl)-2-isopropoxyphenyl)-1,1-difluoromethanesulfonamide], the figures for the Kd in test [3], in test [4] and in test [5] were > 10 µM, < 0.001 µM and > 10 µM, respectively.
Regarding `Cn1nc(-c2ccc(NS(=O)(=O)C(F)F)c(OCc3ncco3)c2)c2c(N)ncc(-c3cnn(C4CCOCC4)c3)c21` [Compound 151, N-(4-(4-amino-1-methyl-7-(1-(tetrahydro-2H-pyran-4-yl)-1H-pyrazol-4-yl)-1H-pyrazolo[4,3-c]pyridin-3-yl)-2-(oxazol-2-ylmethoxy)phenyl)-1,1-difluoromethanesulfonamide], the figures for the Kd in test [3], in test [4] and in test [5] were > 10 µM, < 0.001 µM and > 10 µM, respectively.

These data come from patent US20250059188A1, “ARYLSULPHONAMIDE COMPOUNDS” (Anaxis Pharma Pty Ltd, priority 2021, published 2025).
